Reference: the Deep4Chem optical property database
One block for each compound: values may come before it.

Assay: photoluminescence quantum yield (fraction); solvent given as SMILES

photoluminescence quantum yield (in ClCCl): 0.031
SMILES: CC(C)(C)C1CCC(=CS/C=C/c2ccc(/C=C/SC=C3CCC(C(C)(C)C)CC3)cc2)CC1 (configuration not stated)

photoluminescence quantum yield (in C1CCOC1): 0.145
SMILES: C(=C(c1ccccc1)c1ccccc1)c1ccc(-c2ccc(-c3nc4c5ccccc5c5ccccc5c4n3-c3cccc(-c4ccc(C=C(c5ccccc5)c5ccccc5)cc4)c3)cc2)cc1

photoluminescence quantum yield (in ClCCl): 0.00173
SMILES: COc1cc2c(cc1OC)C1=C[C@H](c3ccccc3)C3(C(C#N)=C(C#N)N1CC2)c1ccccc1-c1ccccc13

photoluminescence quantum yield (in C1CCCCC1): 0.006
photoluminescence quantum yield (in CC#N): 0.043
photoluminescence quantum yield (in CCO): 0.0033
photoluminescence quantum yield (in c1ccccc1): 0.13
SMILES: Nc1ccc2c(c1)-c1ccccc1C2=O

photoluminescence quantum yield (in ClCCl): 0
SMILES: O=[N+]([O-])c1ccc(-c2nc(/C=C/c3ccc(Cl)cc3)c(/C=C/c3ccc(Cl)cc3)[nH]2)cc1

SMILES: CC1=CC(C)=[N+]2C1=C(c1ccc(N3CCOCC3)cc1)c1c(C)cc(C)n1[B-]2(F)F
photoluminescence quantum yield (in C1CCOC1): 0.011
photoluminescence quantum yield (in CC#N): 0.001
photoluminescence quantum yield (in CC(=O)C(C)(C)C): 0.063
photoluminescence quantum yield (in CC(C)=O): 0.001
photoluminescence quantum yield (in CCCCCC): 0.45
photoluminescence quantum yield (in CCOC(C)=O): 0.029
photoluminescence quantum yield (in CO): 0.002

photoluminescence quantum yield (in ClCCl): 0.13
SMILES: CC(C)[Si](C#Cc1c2cc3ccccc3cc2c(C#C[Si](C)(C)C)c2cc3ccccc3cc12)(C(C)C)C(C)C

SMILES: CC(C)(C)c1ccc(C2=CC3=C(c4ccccc4)c4cc(-c5ccc(C(C)(C)C)cc5)c(-c5ccc(C(C)(C)C)cc5)n4[B-](F)(F)[N+]3=C2c2ccc(C(C)(C)C)cc2)cc1
photoluminescence quantum yield (in C1CCCCC1): 0.33
photoluminescence quantum yield (in C1CCOC1): 0.28
photoluminescence quantum yield (in CC#N): 0.29
photoluminescence quantum yield (in Cc1ccccc1): 0.43
photoluminescence quantum yield (in ClCCl): 0.3

photoluminescence quantum yield (in C1CCOC1): 0.34
SMILES: c1cc2ccc1-c1ccc(cc1)-c1sc(c3c1OCCO3)-c1ccc(cc1)-c1ccc(cc1)-c1sc(c3c1OCCO3)-c1ccc(cc1)-c1ccc(cc1)-c1sc-2c2c1OCCO2

photoluminescence quantum yield (in ClCCl): 0.38
SMILES: Clc1ccc2nc3cc4ccccc4cc3c(-c3ccccc3)c2c1

photoluminescence quantum yield (in CC#N): 0.96
SMILES: F[B-]1(F)OC(c2ccc3c(c2)Cc2ccccc2-3)=CC(c2ccccc2)=[O+]1

SMILES: CCOC(=O)/C(C#N)=C\c1ccc2c(c1)c1ccccc1n2-c1ccc(C)cc1
photoluminescence quantum yield (in C1CCOC1): 0.09
photoluminescence quantum yield (in CC#N): 0.01
photoluminescence quantum yield (in CC(C)=O): 0.025
photoluminescence quantum yield (in CCOC(C)=O): 0.11
photoluminescence quantum yield (in CO): 0.06
photoluminescence quantum yield (in CS(C)=O): 0.04
photoluminescence quantum yield (in Cc1ccccc1): 0.095
photoluminescence quantum yield (in ClC(Cl)Cl): 0.08

photoluminescence quantum yield (in c1cc(-c2cccc(-n3c4ccccc4c4ccccc43)c2)cc(-n2c3ccccc3c3ccccc32)c1): 0.98
SMILES: CC(C)c1cc(C(C)C)c(B2c3cc(-n4c5ccc(C(C)(C)C)cc5c5cc(C(C)(C)C)ccc54)ccc3N(c3ccccc3)c3ccc(-n4c5ccc(C(C)(C)C)cc5c5cc(C(C)(C)C)ccc54)cc32)c(C(C)C)c1

photoluminescence quantum yield (in C1CCOC1): 0.65
SMILES: CCCCCCc1ccsc1-c1cc2c3cc(-c4sccc4CCCCCC)c4nc(C(F)(F)C(F)(F)C(F)(F)F)nc5c(-c6sccc6CCCCCC)cc(c6cc(-c7sccc7CCCCCC)c7nc(C(F)(F)C(F)(F)C(F)(F)F)nc1c7c26)c3c45

photoluminescence quantum yield (in ClCCl): 0.82
SMILES: Clc1cc(Cl)c(B2c3ccccc3Nc3ccccc32)c(Cl)c1

photoluminescence quantum yield (in ClC(Cl)Cl): 0.1
SMILES: COc1cc(OC)c2c(c1)c1cc3oc(=O)cc(C)c3cc1c1cc(OC)cc(OC)c12

photoluminescence quantum yield (in ClCCl): 0.092
SMILES: CC(C)(C)c1cc(-c2ccc(-c3cccs3)s2)c2c(c1)c1cc(C(C)(C)C)cc(-c3ccc(-c4cccs4)s3)c1n2-c1ccc(-c2cccs2)s1

SMILES: O=S1(=O)c2ccccc2Oc2cc(N3c4ccccc4C4(c5ccccc53)c3ccccc3N(c3ccc5c(c3)Oc3ccccc3S5(=O)=O)c3ccccc34)ccc21
photoluminescence quantum yield (in O=P(c1ccccc1)(c1ccccc1)c1ccccc1Oc1ccccc1P(=O)(c1ccccc1)c1ccccc1): 0.63

photoluminescence quantum yield (in CCCCCC): 0.35
SMILES: COc1ccc2c(c1)N(c1ccc(C)cc1)c1cc3c(cc1=N2)Oc1c(cc(C(C)(C)C)cc1C(C)(C)C)N=3

SMILES: CN(C)c1ccc(/C=C2\CC/C(=C\c3ccc(N(C)C)cc3)C2=O)cc1
photoluminescence quantum yield (in C1CCOC1): 0.089
photoluminescence quantum yield (in C1COCCO1): 0.08
photoluminescence quantum yield (in CC#N): 0.11
photoluminescence quantum yield (in CC(C)=O): 0.15
photoluminescence quantum yield (in CC(C)O): 0.18
photoluminescence quantum yield (in CCO): 0.11
photoluminescence quantum yield (in CCOC(C)=O): 0.09
photoluminescence quantum yield (in CN(C)C=O): 0.19
photoluminescence quantum yield (in CO): 0.025
photoluminescence quantum yield (in CS(C)=O): 0.2
photoluminescence quantum yield (in Cc1ccccc1): 0.08
photoluminescence quantum yield (in ClC(Cl)(Cl)Cl): 0.043
photoluminescence quantum yield (in ClC(Cl)Cl): 0.13
photoluminescence quantum yield (in ClCCl): 0.16
photoluminescence quantum yield (in S=C=S): 0.1

photoluminescence quantum yield (in ClCCl): 0.062
SMILES: COc1ccc(-c2cn3ccc[n+]3[n-]2)cc1

SMILES: CCCC1=Cc2nc1ccc1[nH]c(cc1CCC)c1nc(c(OC(=O)CCCC(=O)OC(C)(C)C)cc3[nH]c2cc3CCC)C(CCC)=C1
photoluminescence quantum yield (in Cc1ccccc1): 0.21

photoluminescence quantum yield (in C1CCOC1): 0.005
photoluminescence quantum yield (in CC#N): 0.0019
photoluminescence quantum yield (in CS(C)=O): 0.0015
photoluminescence quantum yield (in ClC(Cl)Cl): 0.014
SMILES: COc1cccc2cc(-c3ccc([N+](=O)[O-])cc3)c(=O)oc12

photoluminescence quantum yield (in CC#N): 0.032
SMILES: Brc1ccc(-c2pc3ccccc3s2)cc1 (configuration not stated)

SMILES: COc1ccc2c(c1)c1cc(OC)ccc1n2-c1ccc2c(c1)-c1cc(-n3c4ccc(OC)cc4c4cc(OC)ccc43)ccc1P2(=O)c1ccccc1
photoluminescence quantum yield (in Cc1ccccc1): 0.79
photoluminescence quantum yield (in c1ccc2c(c1)c1ccccc1n2-c1ccc(-c2ccc(-n3c4ccccc4c4ccccc43)cc2)cc1): 0.78

SMILES: Cc1ccc(C2=C3C=CC(/C=C/c4ccccc4)=[N+]3[B-](F)(F)n3c(Cl)ccc32)cc1
photoluminescence quantum yield (in C1CCCCC1): 0.72
photoluminescence quantum yield (in C1CCOC1): 0.56
photoluminescence quantum yield (in C1COCCO1): 0.6
photoluminescence quantum yield (in CCOC(C)=O): 0.57
photoluminescence quantum yield (in CO): 0.55
photoluminescence quantum yield (in Cc1ccccc1): 0.69
photoluminescence quantum yield (in ClC(Cl)Cl): 0.68

photoluminescence quantum yield (in CCOC(C)=O): 0.56
SMILES: CCn1ncc2c3c(C#N)c4c5ccccc5n(C)c4nc3ccc21

photoluminescence quantum yield (in CC#N): 0.09
photoluminescence quantum yield (in CCCCOCCCC): 0.1
photoluminescence quantum yield (in CO): 0.07
SMILES: CC(=O)Nc1cc2ccc3cccc4ccc(c1)c2c34

photoluminescence quantum yield (in C1CCCCC1): 0.65
photoluminescence quantum yield (in CC#N): 0.08
SMILES: C[Si](C)(c1cccc2ccccc12)[Si](C)(C)[Si](C)(C)[Si](C)(C)c1c2ccccc2cc2ccccc12

photoluminescence quantum yield (in CO): 0.14
SMILES: C/C(=N\Nc1ccc(C#N)cc1)c1cccc(/C(C)=N/Nc2ccc(C#N)cc2)c1

photoluminescence quantum yield (in C1CCOC1): 0.34
SMILES: CCC1(CC)c2cc(B(c3c(C)cc(C)cc3C)c3c(C)cc(C)cc3C)ccc2-c2c1c1c(c3c2C(CC)(CC)c2cc(B(c4c(C)cc(C)cc4C)c4c(C)cc(C)cc4C)ccc2-3)C(CC)(CC)c2cc(B(c3c(C)cc(C)cc3C)c3c(C)cc(C)cc3C)ccc2-1

photoluminescence quantum yield (in ClCCl): 0.58
SMILES: c1ccc(N2N=C(c3cccc4ccccc34)CC2c2ccc3ccc4cccc5ccc2c3c45)cc1 (configuration not stated)

SMILES: c1ccc2c(c1)CCc1c-2cnc2c1-c1ccccc1CC2
photoluminescence quantum yield (in C1CCOC1): 0.665
photoluminescence quantum yield (in CC#N): 0.69
photoluminescence quantum yield (in CCCCCC): 0.149
photoluminescence quantum yield (in CCOC(C)=O): 0.567
photoluminescence quantum yield (in CO): 0.141
photoluminescence quantum yield (in CS(C)=O): 0.227
photoluminescence quantum yield (in Cc1ccccc1): 0.513
photoluminescence quantum yield (in ClCCl): 0.291

photoluminescence quantum yield (in CO): 0.56
SMILES: CCN(CC)c1ccc(C2=C3C(C)=CC(C)=[N+]3[B-](F)(F)n3c(C)cc(C)c32)cc1

photoluminescence quantum yield (in CC#N): 0.97
photoluminescence quantum yield (in CO): 0.74
photoluminescence quantum yield (in CS(C)=O): 0.12
photoluminescence quantum yield (in ClC(Cl)Cl): 1
SMILES: O=C1c2ccccc2C2=Cc3ccccc3B(O)N12

photoluminescence quantum yield (in ClC(Cl)Cl): 0.23
SMILES: c1ccc(N(c2ccccc2)c2ccc(-c3ccc(-c4ccc(-c5ccc(-c6ccc(N(c7ccccc7)c7ccccc7)cc6)s5)c5nsnc45)s3)cc2)cc1

photoluminescence quantum yield (in O): 0.68
SMILES: Cc1ccc2c(c1)n(C)c(-c1ccc(-c3ccc(-c4ccc(-c5n(C)c6cc(C)ccc6[n+]5C)cc4)cc3)cc1)[n+]2C

photoluminescence quantum yield (in CO): 0.008
SMILES: N#Cc1c(-n2nnc3ccc(Cl)cc32)n([C@H]2C[C@H](O)[C@@H](CO)O2)c2ncnc(N)c12

SMILES: Fc1c(-n2c3ccccc3c3ccccc32)c(F)c(-n2c3ccccc3c3ccccc32)c(-c2nnc(-c3ccccc3)o2)c1-n1c2ccccc2c2ccccc21
photoluminescence quantum yield (in Cc1ccccc1): 0.06

photoluminescence quantum yield (in C1COCCO1): 0.029
photoluminescence quantum yield (in CC#N): 0.011
photoluminescence quantum yield (in CCO): 0.099
photoluminescence quantum yield (in CCOC(C)=O): 0.017
photoluminescence quantum yield (in O): 0.004
SMILES: CN1C(=O)/C(=C/c2ccncc2)N=C1/C=C/c1ccccc1

photoluminescence quantum yield (in ClCCl): 0.91
SMILES: Cc1c2ccc(=[N+]3CCCCC3)cc-2oc2cc(N3CCCCC3)ccc12

photoluminescence quantum yield (in CC#N): 0.55
photoluminescence quantum yield (in CO): 0.05
SMILES: COc1ccc(-c2c(-c3ccc(OC)cc3)c3c4c(cccc4c2-c2ccccc2)C(=O)c2ccccc2-3)cc1

photoluminescence quantum yield (in C1CCOC1): 0.3
SMILES: Cc1ccc(-c2ccc(-c3ccc(-c4ccc(-c5ccc(C)cc5)cc4)c(/C(=C(/c4ccccc4)c4cc(-c5ccc(-c6ccc(C)cc6)cc5)ccc4-c4ccc(-c5ccc(C)cc5)cc4)c4ccccc4)c3)cc2)cc1

SMILES: CC1(C)c2ccccc2N(c2ccc(-c3ccc(C#N)cc3)cc2)c2ccccc21
photoluminescence quantum yield (in Cc1ccccc1): 0.178
photoluminescence quantum yield (in N#Cc1ccc2c(c1)c1ccccc1n2-c1cccc(-n2c3ccccc3c3ccccc32)c1): 0.36

photoluminescence quantum yield (in ClCCl): 0.15
SMILES: CC(C)(C)c1ccc(-c2c3c(c(-c4ccc(C(C)(C)C)cc4)c4cc5ccccc5cc24)Cc2c(c(-c4ccc(C(C)(C)C)cc4)c4cc5ccccc5cc4c2-c2ccc(C(C)(C)C)cc2)C3)cc1

SMILES: CC(C)(C)c1ccc(-c2sc3c(-c4ccc(C(C)(C)C)cc4)c4n(c3c2-c2ccc(C(C)(C)C)cc2)[B-](F)(F)[N+]2=Cc3c(-c5ccc(C(C)(C)C)cc5)c5sc(-c6ccc(C(C)(C)C)cc6)c(-c6ccc(C(C)(C)C)cc6)c5n3[B-](F)(F)[N+]2=C4)cc1
photoluminescence quantum yield (in CC#N): 0.49
photoluminescence quantum yield (in CCCCCC): 0.64
photoluminescence quantum yield (in CN(C)C=O): 0.45
photoluminescence quantum yield (in Cc1ccccc1): 0.59
photoluminescence quantum yield (in ClCCl): 0.6

photoluminescence quantum yield (in CC#N): 0.51
photoluminescence quantum yield (in CO): 0.14
photoluminescence quantum yield (in ClCCl): 0.63
SMILES: Cc1ccc(-c2[nH]c(=O)n3c2-c2ccccc2C3=O)c(O)c1

photoluminescence quantum yield (in ClCCl): 0.78
SMILES: Cc1ccc(N(c2ccc(C)cc2)c2cc(N(c3ccc(C)cc3)c3ccc(C)cc3)c3ccc4cc(C(C)(C)C)cc5ccc2c3c54)cc1
